Here are results for three compounds from patent publication US20150239890A1, “CRYSTAL OF N-[2-(AMINO)-2-METHYLPROPYL]-2-METHYLPYRAZOLO[1,5-A]PYRIMIDINE-6-CARBOXAMIDE” (SANWA KAGAKU KENKYUSHO CO., LTD., priority 2012, published 2015).

Holding throughout (type): physicochemical
The nature of data set [1]: Stability test in (sealed) condition at 60° C., purity by HPLC. Particulars: for Purity (60° C., sealed) After 4 weeks: sealed brown glass bottle; for Purity (60° C., sealed) Initial stage value: before storage. On the procedure: Each test sample of an amorphous compound 1 prepared by a modification method, an amorphous compound 2 obtained by forming a free base of the amorphous compound 1 into hydrochloride in the same method as in Example 1 of Patent Literature 1, a crystal of the compound 1, which was prepared by the method described in Example 1 of the present specification, was charged into a brown glass bottle by each amount of 10 mg and preserved at 60° C., and the purities were compared after 4 weeks. […] Not that the purity measurement was carried out in the following conditions.
Column: Develosil CN-5 (Nomura Chemical), 250 mm×4.6 mmφ
Mobile phase: 20 mM NaH2PO4 buffer (pH 6.9)/MeCN=80/20
Wavelength: UV 247 nm and 220 nm
Concentration of test sample: 100 μg/ml (H2O)

Data set [2] is described as follows: Hygroscopicity test in condition of 66% RH (20° C.). On the procedure: Each test sample of an amorphous compound 1 prepared in a modification method, an amorphous compound 2 obtained by forming a free base of the amorphous compound 1 into hydrochloride in the same method as in Example 1 of Patent Literature 1, a crystal of the compound 1, which was prepared by the method described in Example 1 of the present specification, was charged into a desiccator at a humidity of 66% RH that was prepared by an aqueous saturated sodium nitrite solution by each amount of 100 mg and left stood at 20° C. Change in weights of each test sample was measured with time and a weight increase ratio was calculated.

Data set [3] can be described thus: Solubility of the crystal in water. Particulars: for solubility: 20 °C, thermodynamic from solid. The protocol: 1. The crystal has peaks around at 9.8°, 17.4°, 18.6°, 25.3°, and 25.8° as diffraction angles represented by 2θ in the powder X-ray diffraction pattern. 2. The crystal has absorption recognized around at wave numbers of 3340 cm^−1, 1664 cm^−1, and 1654 cm^−1 in the infrared absorption spectrum. 3. The crystal has a heat adsorption peak around at 120° C. in the differential scanning calorimetry (DSC). 4. The crystal has a degree of solubility to water of 1 g/ml or higher and the solubility is classified into “very soluble” according to the Japanese Pharmacopoeia.
Solubility (20° C.): >1 g/ml (very soluble)

[4] abbreviates: 66% RH, 20° C., after 7 days, listed as amorphous compound 1.
[5] abbreviates: 66% RH, 20° C., after 7 days, listed as crystal of the compound 1.

As usually defined, the solubility is the dissolved amount per volume that the medium holds.

Read-outs that look alike come from different tables or passages of the source.

For `Cc1cc2ncc(C(=O)NCC(C)(C)NCC(=O)N3CCC[C@H]3C#N)cn2n1` [Amorphous compound 1, N-[2-({2-[(2S)-2-cyanopyrrolidine-1-yl]-2-oxoethyl}amino)-2-methylpropyl]-2-methylpyrazolo[1,5-a]pyrimidine-6-carboxamide], the “Purity (60° C., sealed) After 4 weeks” value in data set [1] (60° C., after 4 weeks) came to 99.4%. Besides, the “Purity (60° C., sealed) After 4 weeks” value in data set [1] (60° C., after 4 weeks, listed as amorphous compound 1) stood at 99.4%. For the same compound, in data set [1], the “impurity / area value of an impurity peak, initial stage” value (“impurity / area value” below) is listed as “not observed to contain an impurity” and the “Purity (60° C., sealed) Initial stage value” is recorded as 100.0%. Besides, in data set [2] (66% RH, 20° C., after 7 days), the “Weight increase ratio (66% RH, 20° C.) After 7 days” value was determined as 1.7% and the “purity After 7 days (66% RH, 20° C.)” value was found to be 99.8%. In data set [2] (setting [4]), the “Weight increase ratio (66% RH, 20° C.) After 7 days” value worked out at 1.7% and the “purity After 7 days (66% RH, 20° C.)” value came to 99.8%. For the same compound, in data set [2], the “Weight increase ratio (66% RH, 20° C.) Initial stage value” turned out to be 0 and the “purity, Initial stage value (66% RH, 20° C. test)” value (shortened to “purity … (66% RH, 20° C. test)”) turned out to be 100.0%.

As to `Cc1cc2ncc(C(=O)NCC(C)(C)NCC(=O)N3CCC[C@H]3C#N)cn2n1` [Amorphous compound 2], the “Purity (60° C., sealed) After 4 weeks” value in data set [1] (60° C., after 4 weeks) is 96.1%. Also, in data set [1] (60° C., after 4 weeks, listed as amorphous compound 2), the “Purity (60° C., sealed) After 4 weeks” value stood at 96.1%. Moreover, the “area value of an impurity peak after 4 weeks” value in data set [1] (60° C., sealed, after 4 weeks) is 3.1%. For the same compound, in data set [1], the “impurity / area value” value was determined as 0.6% and the “Purity (60° C., sealed) Initial stage value” is on record as 98.8%. The “Purity (60° C., sealed) Initial stage value” in data set [1] (listed as amorphous compound 2) is listed as 98.8%. In data set [2] (66% RH, 20° C., after 7 days), the “Weight increase ratio (66% RH, 20° C.) After 7 days” value was determined as 1.7% and the “purity After 7 days (66% RH, 20° C.)” value was found to be 90.5%. For the same compound, in data set [2], the “Weight increase ratio (66% RH, 20° C.) Initial stage value” is recorded as 0 and the “purity … (66% RH, 20° C. test)” value was determined as 97.9%.

In the case of `Cc1cc2ncc(C(=O)NCC(C)(C)NCC(=O)N3CCC[C@H]3C#N)cn2n1` [Crystal of compound 1, N-[2-({2-[(2S)-2-cyanopyrrolidine-1-yl]-2-oxoethyl}amino)-2-methylpropyl]-2-methylpyrazolo[1,5-a]pyrimidine-6-carboxamide], in data set [3] (20° C.), the “Solubility (20° C.) class” value was “very soluble”. Further, the “solubility class according to the Japanese Pharmacopoeia” value in data set [3] (water) is listed as “very soluble”. For the same compound, in data set [3] (water, water, 20° C., read-out: Solubility (20° C.)), the solubility is greater than 1000 mg/mL. The solubility in data set [3] (water, water, water, read-out: degree of solubility to water) is no less than 1000 mg/mL. For the same compound, in data set [1] (60° C., after 4 weeks), the “Purity (60° C., sealed) After 4 weeks” value is listed as 100.0%. Further, the “Purity (60° C., sealed) After 4 weeks” value in data set [1] (60° C., after 4 weeks, listed as crystal of the compound 1) is “not changed”. Also, in data set [1], the “impurity / area value” value is “not observed to contain an impurity” and the “Purity (60° C., sealed) Initial stage value” stood at 100.0%. In data set [2] (66% RH, 20° C., after 7 days), the “Weight increase ratio (66% RH, 20° C.) After 7 days” value came to 0.01%; the “hygroscopicity (in words)” value is reported as “hygroscopicity was not observed”; the “purity After 7 days (66% RH, 20° C.)” value is given as 100.0%. In data set [2] (setting [5]), the “Weight increase ratio (66% RH, 20° C.) After 7 days” value stood at 0.01% and the “purity After 7 days (66% RH, 20° C.)” value is “change in the purity was also not recognized”. Moreover, in data set [2], the “Weight increase ratio (66% RH, 20° C.) Initial stage value” stood at 0 and the “purity … (66% RH, 20° C. test)” value was found to be 100.0%.
